This note sets out measurements from US9539298B2, “Lissencephaly therapeutic agent” (OSAKA CITY UNIVERSITY, priority 2010, dated 2017).

The first series addresses T1, μ-calpain (derived from human red blood cells) (Homo sapiens, UniProt P07384).
T1 construct: derived from human red blood cells; purchased Cosmo Bio Co., Ltd; host or cells: human red blood cells (tissue-purified)
T1 sequence (P07384 1-714): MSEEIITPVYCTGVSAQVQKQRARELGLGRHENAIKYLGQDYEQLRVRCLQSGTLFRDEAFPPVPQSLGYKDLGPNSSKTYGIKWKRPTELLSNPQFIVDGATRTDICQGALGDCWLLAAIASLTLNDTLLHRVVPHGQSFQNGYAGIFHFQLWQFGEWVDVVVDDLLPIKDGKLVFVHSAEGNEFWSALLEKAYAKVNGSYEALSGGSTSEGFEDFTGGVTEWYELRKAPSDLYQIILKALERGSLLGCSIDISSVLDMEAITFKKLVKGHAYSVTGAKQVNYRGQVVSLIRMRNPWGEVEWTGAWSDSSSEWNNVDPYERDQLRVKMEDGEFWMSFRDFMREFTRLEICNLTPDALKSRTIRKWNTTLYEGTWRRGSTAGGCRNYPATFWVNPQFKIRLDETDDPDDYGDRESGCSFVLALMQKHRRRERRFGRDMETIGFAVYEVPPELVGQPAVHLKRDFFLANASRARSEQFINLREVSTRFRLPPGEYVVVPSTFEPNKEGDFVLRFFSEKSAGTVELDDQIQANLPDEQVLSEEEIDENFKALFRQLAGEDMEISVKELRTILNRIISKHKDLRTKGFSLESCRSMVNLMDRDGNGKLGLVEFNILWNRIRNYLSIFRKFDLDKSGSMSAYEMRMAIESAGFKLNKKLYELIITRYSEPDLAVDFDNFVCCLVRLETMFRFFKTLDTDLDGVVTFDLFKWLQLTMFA
T1 sequence (P04632 1-268 partner): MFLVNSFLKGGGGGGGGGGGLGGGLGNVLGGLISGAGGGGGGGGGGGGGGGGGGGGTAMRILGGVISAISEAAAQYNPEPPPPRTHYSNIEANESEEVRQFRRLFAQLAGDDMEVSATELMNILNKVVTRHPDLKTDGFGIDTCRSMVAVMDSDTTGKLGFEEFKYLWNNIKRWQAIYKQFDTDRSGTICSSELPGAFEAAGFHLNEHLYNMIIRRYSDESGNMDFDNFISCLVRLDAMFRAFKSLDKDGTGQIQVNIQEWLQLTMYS
Briefly: Measurement of inhibitory activity against μ-calpain. As to conditions: casein substrate, 30° C., 60 minutes; read-out: enzyme inhibitory activities (μM) μ-calpain. In kind it is biochemical. As to the method: The inhibitory activity against μ-calpain and m-calpain was assayed according to a published method (Anal. Biochem. 1993, vol. 208, p. 387-392). More specifically, 200 μL of a reaction solution containing 0.5 mg/mL casein, 50 mM Tris-HCl buffer (pH 7.4), 20 mM dithiothreitol and 1.0 nmol μ-calpain (derived from human red blood cells, Cosmo Bio Co., Ltd.) or m-calpain (derived from porcine kidney, Cosmo Bio Co., Ltd.) was added to individual 2.5 μL portions of DMSO solution containing a varying concentration of a test sample in a 96-well plate. Then, 50 μL of 20 mM aqueous calcium chloride was added thereto, and reaction was performed at 30° C. for 60 minutes. 100 μL of the reaction solution was transferred to another 96-well plate, and purified water (50 μL) and 50% aqueous solution (100 μL) of Protein Assay Dye Reagent (available from Bio-Rad Laboratories, Inc.; catalogue No. 500-600) were added thereto. The reaction mixture was allowed to stand at room temperature for 15 minutes, and its absorbance was measured at 595 nm. The absorbance of a reaction mixture prepared in the same manner as mentioned above, except that a DMSO solution containing no sample was used as a control value; and the absorbance of a reaction mixture prepared in the same manner as mentioned above, except that a 1 mM aqueous EDTA solution (50 μL) was used in place of 20 mM aqueous calcium chloride, was used as a blank value. […] Inhibition rate (%){1−(measured value−blank test value)/(control value−blank test value)}×100
The concentrations (IC50) are shown in Table 1 as enzyme (calpain) inhibitory activities (μM).
Regarding `COCCOC(=O)N[C@@H](CC(C)C)C(=O)N[C@@H](Cc1ccccc1)C(=O)C(=O)NC1CC1` [compound 4, ((1S)-1-((((1S)-1-Benzyl-2,3-dioxo-3-(cyclopropylamino)propyl)amino)carbonyl)-3-methylbutyl)carbamic acid 2-methoxyethyl ester], the IC50 turned out to be 0.11 µM. As for `COCCOCCOCCOC(=O)N[C@@H](CC(C)C)C(=O)N[C@@H](Cc1ccccc1)C(=O)C(=O)NC1CC1` [compound 18, ((1S)-1-((((1S)-1-Benzyl-2,3-dioxo-3-(cyclopropylamino)propyl)amino)carbonyl)-3-methylbutyl)carbamic acid 8-methoxy-3,6-dioxaoctyl ester], the IC50 was found to be 0.19 µM.

Tested on in a further series: not given
Experiment: not given
Conditions: not given
`CCNC(=O)C(=O)[C@H](Cc1ccccc1)NC(=O)[C@H](CC(C)C)NC(=O)OCCOC` [compound 1, ((1S)-1-((((1S)-1-Benzyl-2,3-dioxo-3-(ethylamino)propyl)amino)carbonyl)-3-methylbutyl) carbamic acid 2-methoxyethyl ester] had a melting point of 138 to 138.3 °C.

`CCNC(=O)C(=O)[C@H](Cc1ccccc1)NC(=O)[C@H](CC(C)C)NC(=O)O[C@H]1CCOC1` [compound 2, ((1S)-1-((((1S)-1-Benzyl-2,3-dioxo-3-(ethylamino)propyl)amino)carbonyl)-3-methylbutyl)carbamic acid (3S)-tetrahydrofuran-3-yl ester] came in with a melting point of 158.9 to 160.7 °C. The compound `CCNC(=O)C(=O)[C@H](Cc1ccccc1)NC(=O)[C@H](CC(C)C)NC(=O)OC1CCOCC1` [compound 3, ((1S)-1-((((1S)-1-Benzyl-2,3-dioxo-3-(ethylamino)propyl)amino)carbonyl)-3-methylbutyl)carbamic acid tetrahydro-4H-pyran-4-yl ester] yielded a melting point of 140 to 141.8 °C.

In the case of `COCCOC(=O)N[C@@H](CC(C)C)C(=O)N[C@@H](Cc1ccccc1)C(=O)C(=O)NC1CC1` [compound 4, ((1S)-1-((((1S)-1-Benzyl-2,3-dioxo-3-(cyclopropylamino)propyl)amino)carbonyl)-3-methylbutyl)carbamic acid 2-methoxyethyl ester], the melting point was in the range of 112.4 to 113.5 °C. Take `CC(C)C[C@H](NC(=O)O[C@H]1CCOC1)C(=O)N[C@@H](Cc1ccccc1)C(=O)C(=O)NC1CC1` [compound 5, ((1S)-1-((((1S)-1-Benzyl-3-(cyclopropylamino)-2,3-dioxopropyl)amino)carbonyl)-3-methylbutyl)carbamic acid (3S)-tetrahydrofuran-3-yl ester]: the melting point lay in the range of 169.2 to 170.5 °C.

As for `CC(C)C[C@H](NC(=O)OC1CCOCC1)C(=O)N[C@@H](Cc1ccccc1)C(=O)C(=O)NC1CC1` [compound 6, ((1S)-1-((((1S)-1-Benzyl-3-cyclopropylamino-2,3-dioxopropyl)amino)carbonyl)-3-methylbutyl)carbamic acid tetrahydro-4H-pyran-4-yl ester], the melting point lay within 137 to 138.2 °C. `CCCNC(=O)C(=O)[C@H](Cc1ccccc1)NC(=O)[C@H](CC(C)C)NC(=O)OCCOC` [compound 7, ((1S)-1-((((1S)-1-Benzyl-2,3-dioxo-3-(propylamino)propyl)amino)carbonyl)-3-methylbutyl)carbamic acid 2-methoxyethyl ester] yielded a melting point of 108.8 to 109.9 °C.

In turn, `COCCOC(=O)N[C@@H](CC(C)C)C(=O)N[C@@H](Cc1ccccc1)C(=O)C(=O)NC1CCC1` [compound 8, ((1S)-1-((((1S)-1-Benzyl-2,3-dioxo-3-(cyclobutylamino)propyl)amino)carbonyl)-3-methylbutyl)carbamic acid 2-methoxyethyl ester] gave a melting point of 114.2 to 115.3 °C. Compound `CCCCNC(=O)C(=O)[C@H](Cc1ccccc1)NC(=O)[C@H](CC(C)C)NC(=O)OCCOC` [compound 9, ((1S)-1-((((1S)-1-Benzyl-3-butylamino-2,3-dioxopropyl)amino)carbonyl)-3-methylbutyl)carbamic acid 2-methoxyethyl ester] had a melting point of 94 to 95.2 °C. With `COCCOC(=O)N[C@@H](CC(C)C)C(=O)N[C@@H](Cc1ccccc1)C(=O)C(=O)NCC(F)(F)F` [compound 10, ((1S)-1-((((1S)-1-Benzyl-2,3-dioxo-3-(2,2,2-trifluoroethylamino)propyl)amino)carbonyl)-3-methylbutyl)carbamic acid 2-methoxyethyl ester], the melting point was 152.5 to 153.9 °C. In turn, `COCCOC(=O)N[C@@H](CC(C)C)C(=O)N[C@@H](Cc1ccccc1)C(=O)C(=O)NC1Cc2ccccc2C1` [compound 11, ((1S)-1-((((1S)-1-Benzyl-2,3-dioxo-3-(2-indanylamino)propyl)amino)carbonyl)-3-methylbutyl)carbamic acid 2-methoxyethyl ester] had a melting point of 141.9 to 143.5 °C. As for `COCCNC(=O)C(=O)[C@H](Cc1ccccc1)NC(=O)[C@H](CC(C)C)NC(=O)OCCOC` [compound 12, ((1S)-1-((((1S)-1-Benzyl-2,3-dioxo-3-(2-methoxyethylamino)propyl)amino)carbonyl)-3-methylbutyl)carbamic acid 2-methoxyethyl ester], the melting point fell in the range of 127 to 127.9 °C.

In the case of `CCNC(=O)C(=O)[C@H](CCc1ccccc1)NC(=O)[C@H](CC(C)C)NC(=O)OCCOC` [compound 13, ((1S)-1-((((1S)-2,3-Dioxo-3-ethylamino-1-(phenylethyl)propyl)amino)carbonyl)-3-methylbutyl)carbamic acid 2-methoxyethyl ester], the melting point was in the range of 119.1 to 120.4 °C.

As to `CCNC(=O)C(=O)[C@H](CCc1ccccc1)NC(=O)[C@H](CC(C)C)NC(=O)O[C@H]1CCOC1` [compound 14, ((1S)-1-((((1S)-2,3-Dioxo-3-ethylamino-1-(phenylethyl)propyl)amino)carbonyl)-3-methylbutyl)carbamic acid (3S)-tetrahydrofuran-3-yl ester], the melting point fell in the range of 111.9 to 114.5 °C. The compound `COCCOC(=O)N[C@@H](CC(C)C)C(=O)N[C@@H](CCc1ccccc1)C(=O)C(=O)NC1CC1` [compound 15, ((1S)-1-((((1S)-2,3-Dioxo-3-cyclopropylamino-1-(phenylethyl)propyl)amino)carbonyl)-3-methylbutyl)carbamic acid 2-methoxyethyl ester] showed a melting point of 109.7 to 111.1 °C. As for `CC(C)C[C@H](NC(=O)O[C@H]1CCOC1)C(=O)N[C@@H](CCc1ccccc1)C(=O)C(=O)NC1CC1` [compound 16], the melting point is 115.8 to 116.2 °C. On the same count and under the same terms, the value for `COCCOC(=O)N[C@@H](CC(C)C)C(=O)N[C@@H](CC(C)C)C(=O)C(=O)NCCOc1ccccc1` [compound 21, ((1S)-1-((((1S)-2,3-Dioxo-1-(2-methylpropyl)-3-(2-phenoxyethyl)aminopropyl)amino)carbonyl)-3-methylbutyl)carbamic acid 2-methoxyethyl ester] was 99.7 to 100.5 °C; that for `COCCOCCOC(=O)N[C@@H](CC(C)C)C(=O)N[C@@H](CC(C)C)C(=O)C(=O)NCCOc1ccccc1` [compound 22, ((1S)-1-((((1S)-2,3-Dioxo-1-(2-methylpropyl)-3-(2-phenoxyethyl)aminopropyl)amino)carbonyl)-3-methylbutyl) carbamic acid 5-methoxy-3-oxapentyl ester] was 53.3 to 54.1 °C.
